Experiments:
[1] = Cytotoxicity against mouse BAF3 cells assessed as cell proliferation after 72 hrs by CelltiterGlo assay; assay type: cell-based
[2] = test system: Receptor-type tyrosine-protein kinase FLT3 (Homo sapiens), P36888 [UNDEFINED MUTATION]; experiment: Inhibition of FLT3 ITD mutant (unknown origin) expressed in BaF3 cells assessed as inhibition of cell proliferation after 72 hrs by CelltiterGlo assay; assay type: cell-based
[3] = test system: MV4-11; experiment: Antiproliferative activity against human MV4-11 cells after 72 hrs by CelltiterGlo assay; assay type: functional; settings: MV4-11, 72 h

Chain of Receptor-type tyrosine-protein kinase FLT3 (Homo sapiens), P36888 [UNDEFINED MUTATION] (P36888 whole entry, looked up, stated change not applied): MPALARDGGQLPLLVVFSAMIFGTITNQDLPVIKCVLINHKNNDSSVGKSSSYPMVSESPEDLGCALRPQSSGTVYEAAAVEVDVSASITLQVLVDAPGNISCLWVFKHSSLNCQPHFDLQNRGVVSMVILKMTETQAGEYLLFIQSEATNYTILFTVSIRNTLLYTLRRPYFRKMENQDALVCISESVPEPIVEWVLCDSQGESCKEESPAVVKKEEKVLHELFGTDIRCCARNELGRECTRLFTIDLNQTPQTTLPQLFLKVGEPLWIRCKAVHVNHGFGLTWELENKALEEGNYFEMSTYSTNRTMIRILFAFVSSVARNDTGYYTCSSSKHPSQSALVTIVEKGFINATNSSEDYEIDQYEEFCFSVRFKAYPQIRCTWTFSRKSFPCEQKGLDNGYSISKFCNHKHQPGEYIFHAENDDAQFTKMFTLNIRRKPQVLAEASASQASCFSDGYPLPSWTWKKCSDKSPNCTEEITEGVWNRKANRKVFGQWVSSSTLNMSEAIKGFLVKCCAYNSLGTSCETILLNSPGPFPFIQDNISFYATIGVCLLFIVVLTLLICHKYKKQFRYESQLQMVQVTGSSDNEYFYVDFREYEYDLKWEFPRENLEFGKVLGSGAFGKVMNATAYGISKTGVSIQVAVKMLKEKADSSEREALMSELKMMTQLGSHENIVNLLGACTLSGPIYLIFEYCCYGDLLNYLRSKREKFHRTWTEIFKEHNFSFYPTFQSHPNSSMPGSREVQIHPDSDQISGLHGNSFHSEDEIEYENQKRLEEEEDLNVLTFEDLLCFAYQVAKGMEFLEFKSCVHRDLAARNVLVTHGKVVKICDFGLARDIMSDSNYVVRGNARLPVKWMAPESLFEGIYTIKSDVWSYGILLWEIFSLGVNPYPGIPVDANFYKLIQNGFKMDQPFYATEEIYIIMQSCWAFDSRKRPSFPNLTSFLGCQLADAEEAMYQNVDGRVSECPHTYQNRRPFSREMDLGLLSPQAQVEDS

Row | SMILES | GI50 at 72 h [1] [nM] | GI50 [2] [nM] | GI50 [3] [nM]
1 | CS(=O)(=O)N1CCC(n2nc(-c3ccc(Oc4ccccc4)cc3)c3c(N)ncnc32)CC1 | > 10000 | 190 | 630
2 | CS(=O)(=O)N1CC[C@@H](n2nc(-c3ccc(Oc4ccccc4)cc3)c3c(N)ncnc32)C1 | > 10000 | 130 | 420
3 | NCCC(=O)N1CCC[C@@H](n2nc(-c3ccc(Oc4ccccc4)cc3)c3c(N)ncnc32)C1 | > 10000 | 390 | 750
4 | CC(=O)N1CCC[C@@H](n2nc(-c3ccc(Oc4ccccc4)cc3)c3c(N)ncnc32)C1 | 5500 | 70 | 350
5 | CN1CCC(C(=O)N2CCC[C@@H](n3nc(-c4ccc(Oc5ccccc5)cc4)c4c(N)ncnc43)C2)CC1 | 5000 | 77 | 160
6 | Nc1ncnc2c1c(-c1ccc(Oc3ccccc3)cc1)nn2[C@@H]1CCCN(C(=O)CC2CC2)C1 | 3600 | 82 | 410
7 | C=CC(=O)N1CCC[C@@H](n2nc(-c3ccc(/C=C/c4ccccc4)cc3)c3c(N)ncnc32)C1 | > 10000 | 1800 | > 10000
8 | CC[C@@H](C)[C@@H](N)C(=O)N1CCC[C@@H](n2nc(-c3ccc(Oc4ccccc4)cc3)c3c(N)ncnc32)C1 | 1700 | 88 | 120
9 | Nc1ncnc2c1c(-c1ccc(Oc3ccccc3)cc1)nn2[C@@H]1CCCN(C(=O)C2CC2)C1 | > 10000 | 1400 | 6500
10 | C[C@@H](N)C(=O)N1CCC[C@@H](n2nc(-c3ccc(Oc4ccccc4)cc3)c3c(N)ncnc32)C1 | 3800 | 22 | 54
11 | CC(C)(C)CC(=O)N1CCC[C@@H](n2nc(-c3ccc(Oc4ccccc4)cc3)c3c(N)ncnc32)C1 | 4600 | 460 | 2400
12 | NCC(=O)N1CC[C@@H](n2nc(-c3ccc(Oc4ccccc4)cc3)c3c(N)ncnc32)C1 | 7590 | 80 | 180
13 | CN1CCN(CC(=O)N2CCC[C@@H](n3nc(-c4ccc(Oc5ccccc5)cc4)c4c(N)ncnc43)C2)CC1 | 2300 | 93 | 230
14 | CC(O)[C@@H](N)C(=O)N1CCC[C@@H](n2nc(-c3ccc(Oc4ccccc4)cc3)c3c(N)ncnc32)C1 (some centres not stated) | 3900 | 22 | 64
15 | CC(C)(C)C(=O)N1CCC[C@@H](n2nc(-c3ccc(Oc4ccccc4)cc3)c3c(N)ncnc32)C1 | > 10000 | 1800 | > 10000
16 | CN(C)CC(=O)N1CCC[C@H](n2nc(-c3ccc(Oc4ccccc4)cc3)c3c(N)ncnc32)C1 | 5800 | 120 | 280

Row | SMILES | GI50 at 72 h [1] [nM] | GI50 [2] [nM] | GI50 [3] [nM]
17 | CN(C)CC(=O)N1CCC(n2nc(-c3ccc(Oc4ccccc4)cc3)c3c(N)ncnc32)CC1 | 3650 | 75 | 110
18 | CS(=O)(=O)N1CCC[C@@H](n2nc(-c3ccc(Oc4ccccc4)cc3)c3c(N)ncnc32)C1 | > 10000 | 48 | 170
19 | CC(C)C[C@@H](N)C(=O)N1CCC[C@@H](n2nc(-c3ccc(Oc4ccccc4)cc3)c3c(N)ncnc32)C1 | 1300 | 5 | 32
20 | CN(C)CC(=O)N1CC[C@@H](n2nc(-c3ccc(Oc4ccccc4)cc3)c3c(N)ncnc32)C1 | 8420 | 41 | 83
21 | CC(C)[C@@H](N)C(=O)N1CCC[C@@H](n2nc(-c3ccc(Oc4ccccc4)cc3)c3c(N)ncnc32)C1 | 1400 | 17 | 27
22 | CCC(=O)N1CCC[C@@H](n2nc(-c3ccc(Oc4ccccc4)cc3)c3c(N)ncnc32)C1 | 3800 | 28 | 130
23 | NCC(=O)N1CCC[C@@H](n2nc(-c3ccc(Oc4ccccc4)cc3)c3c(N)ncnc32)C1 | 3800 | 7 | 22
24 | CCCC(=O)N1CCC[C@@H](n2nc(-c3ccc(Oc4ccccc4)cc3)c3c(N)ncnc32)C1 | > 10000 | 450 | 1200
25 | C=CC(=O)N1CCC[C@@H](n2nc(-c3ccc(Oc4ccccc4)cc3)c3c(N)ncnc32)C1 [IBRUTINIB] | > 10000 | 120 | 
26 | CCS(=O)(=O)N1CCC[C@@H](n2nc(-c3ccc(Oc4ccccc4)cc3)c3c(N)ncnc32)C1 | 4000 | 140 | 570
27 | CCC(C)(C)C(=O)N1CCC[C@@H](n2nc(-c3ccc(Oc4ccccc4)cc3)c3c(N)ncnc32)C1 | 4500 | 260 | 2400
28 | Nc1ncnc2c1c(-c1ccc(Oc3ccccc3)cc1)nn2[C@@H]1CCCN(C(=O)[C@H](N)CO)C1 | 6500 | 46 | 61
29 | CC(C)C[C@@H](N)C(=O)N1CCC(n2nc(-c3ccc(Oc4ccccc4)cc3)c3c(N)ncnc32)CC1 | 590 | 75 | 210
30 | CC(C)C[C@@H](N)C(=O)N1CC[C@@H](n2nc(-c3ccc(Oc4ccccc4)cc3)c3c(N)ncnc32)C1 | 2150 | 41 | 120
31 | CCCS(=O)(=O)N1CCC[C@@H](n2nc(-c3ccc(Oc4ccccc4)cc3)c3c(N)ncnc32)C1 | 8600 | 160 | 760

Source: ChEMBL document CHEMBL3745617 (J Med Chem, 2015)
